# Experimental data from US4762701A, “In vivo cellular tracking” (SmithKline Beckman Corporation, priority 1986, dated 1988).
# Peptide text beside a SMILES is read from it.
# Key:
# Yac cells = experiment: Doubling time of Yac cells after thirty minutes exposure to osmolarity regulating agents; format: cell-based, mouse; details: for Doubling Time: after thirty minutes exposure, PBS is the comparator; for effects on cell doubling time: compared to phosphate buffered saline
# Method: The effect on cell viability of exposure to a variety of osmolarity regulating agents was determined by measuring the doubling time of Yac cells after the cells were exposed for thirty minutes to a variety of osmolarity regulating agents. Yac cells are a mouse lymphoma tissue culture cell line available from the American Type Culture Collection, Rockville, Maryland, and are described in the European Journal of Immunology 5:112-117 (1975).
# [1] = Solubility of DiSC14 (5) in iso-osmotic glucose diluted with water or sodium chloride solution; format: physicochemical
# Method: Further, the solubility of cyanine dyes in a medium containing classical salts and osmolarity regulators in which the dyes are soluble was evaluated. […] Thus, reproducible cell labelling with cyanine dyes can be performed in media containing no more than small amounts of classical salts, such as sodium chloride, potassium chloride, calcium chloride, sodium acetate, potassium acetate, sodium sulfate, sodium iodide, choline chloride, or choline iodide, and preferably is performed in a medium in which no classical salts are used to regulate osmolarity.
# rabbit red cells = experiment: In vivo stability of labelled rabbit red cells after reinfusion
# Text: To test in vivo stability of cells cyanine dye labelled according to the presently invented method, rabbit red cells were withdrawn, labelled with DiSC14 (5), and reinfused. Periodically thereafter, blood samples were obtained and analyzed for percent labelled cells and fluorescence intensity of the labelled cells.
# In the fifth animal, not more than 20% of the cyanine dye had migrated from the labelled cells after 60 days in the rabbits' circulation.
# [2] = Cyanine dye solubility in osmolarity regulating agents (relative fluorescence intensity, ethanol standard); format: physicochemical
# Method: (§1) Included within compounds referred to herein as cyanine dyes are compounds of the above structure having one or more substitutions provided such substituted compounds are soluble in cell labelling media for at least as long as needed for labelling and have a sufficiently high membrane partition coefficient to remain associated with labelled cell membranes. […] Solubility in cell labelling media is determined as shown below by dispursing a cyanine dye in the labelling media and, by standard spectrafluorometric techniques, measuring fluorescence intensity over time. Decreasing fluorescence intensity indicates dye precipitation and adherence to vessel walls. Whether the dyes remain associated with cell membranes is determined, for example, using known flow cytometric procedures to monitor fluorescence intensity of red blood cells injected into the donor animal after labelling. Essentially constant fluorescence intensity of the labelled cells after injection establishes stability of the dye in cell membranes.
# All measurements of concentration were made after removal of precipitates by centrifugation and dissolving small aliquots of osmolarity regulating agents containing cyanine dyes into ethanol for spectrofluorometric analysis. The dyes used were DiSC14 (5) and DiOC14 (3), and the osmolarity regulating agents were at iso-osmotic concentrations. Reductions in fluorescence intensity from the ethanol solution standard directly correlate with reductions in cyanine dye solubility.
# [3] = Stability of DiSC14 (5) solutions in osmolarity regulating agents; format: physicochemical
# Method: as §1
# Additionally, stability of DiSC14 (5) solutions in sugars such as glucose, fructose, ribose, sorbose, sucrose, and xylose, sugar-alcohols such as glycerol, inositol, xylitol, and adonitol, and amino acids such as glycine and arginine was determined.
# V79 cells = experiment: Growth kinetics of stained V79 cells; format: cell-based; details: 10^-5 or 4×10^-5 M dye, versus unstained cells
# Method: Cells cyanine dye labelled using the presently invented procedure were analyzed to determine the effect of labelling on cell viability. V79 cells which are available from the American Type Culture Collection, Rockville, Maryland, and are described in Prescott, D. M., Ann. New York Acad. Sci., 397:101-109 (1982), were labelled with a solution containing DiOC14 (3) at a concentration of 10^-5 or 4×10^-5 M and the growth kinetics of the stained cells were compared to unstained cells and an equal mixture of stained and unstained cells. […] Thus, labelling had no effect on cell growth.
# [4] = rabbit, reinfused labelled red cells
# [5] = in Phosphate Buffered Saline, ethanol = 100
# [6] = in iso-osmotic Arginine, ethanol = 100
# [7] = in iso-osmotic Choline Chloride, ethanol = 100, ** (DiSC14 (5) value) Artifact due to large crystals that did not pellet
# [8] = in iso-osmotic Choline Iodide, ethanol = 100
# [9] = in iso-osmotic Fructose, ethanol = 100
# [10] = in iso-osmotic Glucose, ethanol = 100
# [11] = in iso-osmotic Glycerol, ethanol = 100
# [12] = in iso-osmotic Glycine, ethanol = 100
# [13] = in iso-osmotic Inositol, ethanol = 100
# [14] = in iso-osmotic Lyxose, ethanol = 100
# [15] = in iso-osmotic Na2 SO4, ethanol = 100
# [16] = in iso-osmotic NaCl, ethanol = 100
# [17] = in iso-osmotic NaI, ethanol = 100
# [18] = in iso-osmotic Ribose, ethanol = 100
# [19] = in iso-osmotic Sorbose, ethanol = 100
# [20] = in iso-osmotic Sucrose, ethanol = 100
# [21] = in iso-osmotic Xylitol, ethanol = 100
# [22] = in iso-osmotic Xylose, ethanol = 100
smiles,measurement,setting,value
"NC(=O)CNCCS(=O)(=O)O [ACES, 2-[(2-Amino-2-oxoethyl)amino]ethane sulfonic acid]",Doubling Time,Yac cells,1038.4 h
"O=S(=O)(O)CCCN1CCN(CCO)CC1 [EPPS, N--(2-Hydroxyethyl)piperazine-N'--3-propanesulfonic acid]",Doubling Time,Yac cells,32.2 h
same,effects on cell doubling time,Yac cells,negligible effects on cell doubling time
"O=S(=O)(O)CC(O)CN(CCO)CCO (centres unmarked) [DIPSO, 3-[N--N--bis(2-hydroxyethyl)amino]-2-hydroxypropane-sulfonic acid]",Doubling Time,Yac cells,36.7 h
same,effects on cell doubling time,Yac cells,negligible effects on cell doubling time
O=C[C@H](O)[C@@H](O)[C@H](O)[C@H](O)CO [Glucose],Doubling Time,Yac cells,34.5 h
same,effects on cell doubling time,Yac cells,negligible effects on cell doubling time
N[C@H]1C(O)O[C@H](CO)[C@@H](O)[C@@H]1O (some centres unmarked) [Glucosamine],Doubling Time,Yac cells,288.4 h
"O=S(=O)(O)CCCNC(CO)(CO)CO [TAPS, Tris(hydroxymethyl)-methylaminopropane sulfonic acid]",Doubling Time,Yac cells,32.7 h
same,effects on cell doubling time,Yac cells,negligible effects on cell doubling time
CCCCCCCCCCCCCCN1C(=CC=CC=Cc2sc3ccccc3[n+]2CCCCCCCCCCCCCC)Sc2ccccc21 [DiSC14 (5)],solubility in iso-osmotic glucose solution on dilution with distilled water,[1]; diluted with distilled water,not significantly affected by dilution with distilled water
same,solubility in iso-osmotic glucose solution on dilution with sodium chloride solution,[1]; dilution with only approximately 20% iso-osmotic sodium chloride solution,reduced significantly
same,fluorescence intensity of the stained cells,"rabbit red cells; 60 days after labelling and reinjection, all but one of five rabbits",remained essentially unchanged 60 days after labelling and reinjection
same,cyanine dye migrated from the labelled cells,"rabbit red cells; fifth rabbit, after 60 days in circulation",not more than 20%
same,clearance rate of red blood cells,"rabbit red cells; rabbit, labelled red cells",did not affect the clearance rate of red blood cells
same,lifetime of labelled red cells,rabbit red cells; [4],52 days
same,number of circulating labelled red cells over time,rabbit red cells; [4],decreased linearly as a function of time
same,Relative Fluorescence Intensity (CONC),[2]; in Ethanol (standard),100
same,Relative Fluorescence Intensity (CONC),[2]; [5],2.1
same,Relative Fluorescence Intensity (CONC),"[2]; in iso-osmotic Adonitol, ethanol = 100",34
same,Relative Fluorescence Intensity (CONC),[2]; [6],17
same,Relative Fluorescence Intensity (CONC),"[2]; in iso-osmotic CAPS, ethanol = 100",40
same,Relative Fluorescence Intensity (CONC),[2]; [7],11
same,Relative Fluorescence Intensity (CONC),[2]; [8],0.16
same,Relative Fluorescence Intensity (CONC),"[2]; in iso-osmotic DIPSO, ethanol = 100, *** Precipitate in ethanol (data questionable)",43
same,Relative Fluorescence Intensity (CONC),"[2]; in iso-osmotic EPPS, ethanol = 100",18
same,Relative Fluorescence Intensity (CONC),[2]; [9],35
same,Relative Fluorescence Intensity (CONC),[2]; [10],31
same,Relative Fluorescence Intensity (CONC),[2]; [11],39
same,Relative Fluorescence Intensity (CONC),[2]; [12],31
same,Relative Fluorescence Intensity (CONC),"[2]; in iso-osmotic HEPPSO, ethanol = 100",20
same,Relative Fluorescence Intensity (CONC),[2]; [13],42
same,Relative Fluorescence Intensity (CONC),[2]; [14],0.12
same,Relative Fluorescence Intensity (CONC),"[2]; in iso-osmotic Mannitol, ethanol = 100",29
same,Relative Fluorescence Intensity (CONC),[2]; [15],7.4
same,Relative Fluorescence Intensity (CONC),[2]; [16],6
same,Relative Fluorescence Intensity (CONC),[2]; [17],1.1
same,Relative Fluorescence Intensity (CONC),[2]; [18],24
same,Relative Fluorescence Intensity (CONC),[2]; [19],40
same,Relative Fluorescence Intensity (CONC),[2]; [20],41
same,Relative Fluorescence Intensity (CONC),"[2]; in iso-osmotic TAPS, ethanol = 100",18
same,Relative Fluorescence Intensity (CONC),[2]; [21],34
same,Relative Fluorescence Intensity (CONC),[2]; [22],36
same,time for which dye was stable in solution,"[3]; in glucose, fructose, ribose, sorbose, sucrose, xylose, glycerol, inositol, xylitol, adonitol, glycine, arginine",at least twenty
same,amount of cyanine dye in solution at sixty minutes,"[3]; in many of the agents, sixty minutes",had not significantly decreased at sixty minutes
"O=C(O)CN(CCO)CCO [BICINE, N,N--bis(2-hydroxyethyl)glycine]",Doubling Time,Yac cells,57.7 h
"O=S(=O)(O)CC(O)CNC(CO)(CO)CO (centres unmarked) [TAPSO, 3-[N--tris(hydroxymethyl)methylamino]-2-hydroxypropanesulfonic acid]",Doubling Time,Yac cells,63.6 h
"O=S(=O)(O)CC(O)CN1CCOCC1 (centres unmarked) [MOPSO, 3-(N--morpholino)-2-hydroxypropane-sulfonic acid]",Doubling Time,Yac cells,178.4 h
CCCCCCCCCCCCCCN1C(=CC=Cc2oc3ccccc3[n+]2CCCCCCCCCCCCCC)Oc2ccccc21 [DiOC14 (3)],Relative Fluorescence Intensity (CONC),[2]; in Ethanol (standard),100
same,Relative Fluorescence Intensity (CONC),[2]; [5],6.5
same,Relative Fluorescence Intensity (CONC),[2]; [6],17.2
same,Relative Fluorescence Intensity (CONC),[2]; [7],6.3
same,Relative Fluorescence Intensity (CONC),[2]; [8],2.3
same,Relative Fluorescence Intensity (CONC),[2]; [9],100
same,Relative Fluorescence Intensity (CONC),[2]; [10],100
same,Relative Fluorescence Intensity (CONC),[2]; [11],99.5
same,Relative Fluorescence Intensity (CONC),[2]; [12],93
same,Relative Fluorescence Intensity (CONC),[2]; [13],92
same,Relative Fluorescence Intensity (CONC),[2]; [14],1.8
same,Relative Fluorescence Intensity (CONC),[2]; [15],1.6
same,Relative Fluorescence Intensity (CONC),[2]; [16],1.7
same,Relative Fluorescence Intensity (CONC),[2]; [17],0.14
same,Relative Fluorescence Intensity (CONC),[2]; [18],100
same,Relative Fluorescence Intensity (CONC),[2]; [19],100
same,Relative Fluorescence Intensity (CONC),[2]; [20],100
same,Relative Fluorescence Intensity (CONC),[2]; [21],76.4
same,Relative Fluorescence Intensity (CONC),[2]; [22],19-52
same,Cell doubling time of labelled cells,V79 cells,Cell doubling time was unaffected by cyanine dye labelling
NCCCS(=O)(=O)O [3-Amino-1-propanesulfonic acid],Doubling Time,Yac cells,99.6 h
"O=S(=O)(O)CCCNC1CCCCC1 [CAPS, 3-(Cyclohexylamino)-1-propanesulfonic acid]",Doubling Time,Yac cells,45.8 h
same,effects on cell doubling time,Yac cells,negligible effects on cell doubling time
OC[C@H]1O[C@@](CO)(O[C@H]2O[C@H](CO)[C@@H](O)[C@H](O)[C@H]2O)[C@@H](O)[C@@H]1O [Sucrose],Doubling Time,Yac cells,41.0 h
same,effects on cell doubling time,Yac cells,negligible effects on cell doubling time
NCC(=O)NCC(=O)O [Glycylglycine] (H-Gly-Gly-OH),Doubling Time,Yac cells,66.9 h
"O=S(=O)(O)CC(O)CN1CCN(CCO)CC1 (centres unmarked) [HEPPSO, N--2-hydroxyethylpiperazine-N'--2-hydroxypropane-sulfonic acid]",Doubling Time,Yac cells,23.4 h
same,effects on cell doubling time,Yac cells,negligible effects on cell doubling time
"O=S(=O)(O)CCNC1CCCCC1 [CHES, 2-(N--cyclohexylamino)ethane sulfonic acid]",Doubling Time,Yac cells,51.5 h
